≈ marks a conversion by molar mass, not a printed value. Where two headings read alike, the source gives them in different places.
Assays:
[1] = test system: Propionibacterium acnes ATCC #11827; test: Antimicrobial susceptibility testing (MIC) by the agar dilution method; format: cell-based; settings: Cutibacterium acnes
[2] = test system: patients with mild to moderate acne vulgaris; test: Open label study of NV-02 in the topical treatment of mild to moderate acne vulgaris; format: in vivo, human; settings: after topical NV-02 twice daily; varied between and within patients
Protocol: The results were from a study of twenty patients (5 males, 15 females) who were enrolled with varying ethnicity: Caucasian(12), African American (6), Hispanic (1), and Asian (1). The age range was from 20 to 48 years (mean 29.6 years). All subjects received open-label PCL-016 10% gel to be applied twice daily to the face over 12 weeks.
The experiment was performed as indicated for the per protocol analysis described under FIG. 1 above.
22, 2002 • Date of last completed: May 2, 2003 • Methodology: Open label study • Number of patients (planned and analyzed): 15 patients planned, 20 enrolled, 15 completed. • Diagnosis and main criteria for inclusion: mild to moderate acne vulgaris • Test product, dose and mode of administration, batch number: NV-02 applied twice daily to affected areas of the face; Novactyl lot number 155 • Duration of treatment: twice daily for 3 months • Criteria for evaluation: • Efficacy: Total lesion counts, inflammatory lesion count, non-inflammatory lesion count, and Cunliffe's grade, FDA scale • Safety: Adverse events, PCL-0 16 plasma levels, serum chemistry, complete blood count • Statistical Methods: descriptive statistics of patient population, patient demographics, and lesion counts, etc.; changes in lesion counts relative to baseline; percent reduction in lesion counts. […]

skin = test: Cumulative irritation study (cream vehicle); format: in vivo; settings: different (cream) vehicle
acne lesions = settings: cited from earlier work

SMILES: O=C(O)c1ccccn1 [Picolinic acid, pyridine-2-carboxylic acid]
- MIC ([1]; ATCC11827, P. acnes ATCC #11827, Supplemented Brucella agar with blood, 48-72 hours at 35±2° C., anaerobic, read-out: Minimum Inhibitory Concentration (MIC): lowest concentration that visibly prevented growth): 500 µg/mL (≈ 4060 µM)
- absorption into the systemic circulation (plasma levels) [2]: Small amounts
- risk of topical irritation to the skin (skin): low risk of topical irritation

SMILES: CC1=C(/C=C/C(C)=C/C=C/C(C)=C/C(=O)O)C(C)(C)CCC1 [Tretinoin]
- reduction of total lesions counts (acne lesions; topical agent on the market): 32-45%
- photosensitization (acne lesions; topical): photosensitizing

SMILES: CCCCc1ccc(C(=O)O)nc1 [fusaric acid]
- MIC ([1]; ATCC11827, read-out: Minimum Inhibitory Concentration (MIC): lowest concentration that visibly prevented growth): 100 µg/mL (≈ 558 µM)

Reference: patent publication US20050239723A1, “Compositions and methods useful for treatment of acne” (priority 2004, published 2005)
